Experimental data: patent US5347012A, “Naphthothiopyranone derivatives” (Taisho Pharmaceutical Co., Ltd., priority 1990, dated 1994)

System: Emesis induced by cisplatin
Assay: Anti-vomiting effect test: inhibition of cisplatin-induced emesis in suncus
Assay type: in vivo
Conditions: 45 min before cisplatin 30 mg/kg i.v., emesises over 2 hours; for % value to control (number of emesises): control = 100%
From the text: Emesis induced by cisplatin is known to be inhibited by antagonists at 5-HT3 receptors. The anti-vomiting effect of the compound of the present invention was compared with that of the compound described in Example of Japanese Patent Kokai 2-209876 according to the method of Matsumoto et al [Japanese Journal of Pharmacology, vol. 48, pp. 303-306 (1988)].
The compound obtained in Example 4 (hereinafter referred to as "Compound A") and the compound described in Example 1 of Japanese Patent Kokai 2-209876 (hereinafter referred to as "Compound B") were each suspended in 0.4% aqueous carboxymethylcellulose solution to give test samples.
Group each of six suncus of either sex weighing 40-60 g (male) and 30-50 g (female) were used. Each animal was placed with a chronic intravenous cannula 3 days before vomiting test. The samples prepared above were orally administered in the doses of 0.03-3 mg/kg to each group of the animals. After 45 minutes 30 mg/kg of cisplatin was administered intravenously, and number of emesises was determined for a period of 2 hours. Number of emesises for a period of 2 hours of a control group treated with 0.4% carboxymethylcellulose suspension alone was determined as well.
Number of emesises obtained above was expressed as compared with 100% of the control, and IC50 value was calculated by number of emesises.

Cc1nccn1Cc1csc2ccc3ccccc3c2c1=O.Cl [Compound A, 2-[(2-Methyl-1-imidazolyl)methyl]-1H-naphtho-[2,1-b]thiopyran-1-one hydrochloride]
% value to control (number of emesises) (0.03 mg/kg oral): 77.8%
% value to control (number of emesises) (0.3 mg/kg oral): 17.0%
% value to control (number of emesises) (3 mg/kg oral): 4.4%
ED50 (oral, doses 0.03-3 mg/kg, read-out: IC50 value (number of emesises)): 0.0904 mg/kg
